From US20240374623A1, “TKTL1 INHIBITORS FOR ANTIVIRAL THERAPY” (Tavargenix GmbH, priority 2021, published 2024)

Key:
[1] = system: interleukin-6 (IL-6); experiment: Individual curative trials in hospitalized COVID-19 patients: interleukin-6 level; format: in vivo, human
[2] = system: C-reactive protein (CRP); experiment: Individual curative trials in hospitalized COVID-19 patients: C-reactive protein level; format: in vivo, human; design: unit not given here
[3] = system: SARS-CoV-2; experiment: Individual curative trials in hospitalized COVID-19 patients: viral load by PCR; format: in vivo, human; settings: daily less than 20 mg B-OT per 70 kg body weight over 7 days
[4] = system: human cytomegalovirus (HCMV); experiment: HCMV-EYFP replication in human embryonic lung fibroblasts (HEL), fluorescence-based antiviral assay; format: cell-based; settings: HCMV-EYFP-infected HEL cells, 48 h incubation; read-out: 50% inhibitory concentration (IC50), EYFP emission reduced by half
Experimental: Furthermore, the sensitivity of HCMV replication to B-OT in human mammalian cells was investigated. For this purpose, experiments were performed as described in the work of Dal Pozzo et al. 2008 with B-OT: Human embryonic lung fibroblasts (HEL) were infected with recombinant HCMV EYFP viruses additionally encoding enhanced yellow fluorescent protein (EYFP) (Dal Pozzo F, et al., 2008). As a measure of viral replication after infection with HCMV-EYFP, the emission of the EYFP protein was measured (excitation wavelength: 485 nm/emission: 530 nm). The constant and low cell-associated background emission measured in an automated manner was subtracted from the fluorescence emission value. To test the antiviral effect of B-OT, HCMV-EYFP-infected cells were incubated for 48 h with different B-OT concentrations (0 to 20 mM B-OT). Dose-dependent inhibition of fluorescence (as a measure of viral replication) was evident. The required compound concentration that reduced EYFP emission by half compared with untreated controls (0 mM B-OT) was defined as the 50% inhibitory concentration (IC50) in the fluorescence-based antiviral assay. The IC50 determined here was 0.5 mM B-OT.

[5] = In vivo pharmacokinetics: blood-brain barrier penetration; settings: in vivo pharmacokinetics data
From the text: A preferred inhibitory thiamine analog is the substance benfo-oxythiamine (B-OT). B-OT is a precursor (“pro-pharmacon”, “prodrug”) of oxythiamine, can be applied orally and releases oxythiamine shortly after its uptake into the mammalian organism. Via the bloodstream, B-OT can reach all cells in all parts of the body.

[6] = system: SARS-CoV-2 infected Caco-2 cells; settings: human
[7] = system: SARS-CoV-2; format: cell-based; settings: 25 μM resveratrol for 48 h, Caco-2 cells
[8] = system: TKTL1 promoter; design: dose or concentration left out as unconfirmed; settings: HeLa cells, resveratrol for 48 h; cited from earlier work
[9] = system: HeLa cells; settings: cited from earlier work
[10] = system: TKTL1 mRNA; format: cell-based, human; settings: different resveratrol concentrations, 24 h
[11] = daily less than 20 mg B-OT per 70 kg, after 7 days
[12] = hospitalized COVID-19 patients, start of therapy

With `C/C(=C(\CCOP(=O)(O)O)SC(=O)c1ccccc1)N(C=O)Cc1cnc(C)[nH]c1=O` [B-OT, benfo-oxythiamine] the “average IL-6 level under 7-day B-OT therapy” value [1, 11] was 5 pg/mL, the “average IL-6 level before B-OT therapy” value [1, 12] was 63 pg/mL and the “average CRP level under 7-day B-OT therapy” value [2, 11] was 5. The “average CRP level before B-OT therapy” value [2, 12] was 77, the “viral load as detected by PCR” value [3] was “significant reduction in viral load” and the IC50 [4] was 500 µM.

In the case of `Cc1ncc(C[n+]2csc(CCO)c2C)c(=O)[nH]1` [oxythiamine], the blood-brain barrier penetration [5] is reported as “can penetrate the blood-brain barrier”.

For `Oc1ccc(C=Cc2cc(O)cc(O)c2)cc1` [resveratrol], the “viability of Caco-2 cells” value [6] is given as 93%, the “decrease of replication ability of SARS-CoV-2 viruses compared to the control” value [7] is given as 68% and the “reduction in TKTL1 promoter activity compared to untreated cells” value [8] is given as 75%. The “viability of HeLa cells” value [9] was “significant decrease in the viability of HeLa cells” and the “reduction of TKTL1 mRNA” value [10] was “the higher the concentration the stronger the reduction”.
